Experimental data published in patent US20080153701A1, “Fungicidal Mixtures” (BASF Aktiengesellschaft, priority 2004, published 2008).
Read-outs that look alike come from different tables or passages of the source.

Columns and labels:
Botrytis cinerea [1] = assay: Activity against the gray mold pathogen Botrytis cinerea in the microtiter test; format: cell-based; details: microtiter plate, day 7
Phytophthora infestans = format: cell-based; details: microtiter plate, 405 nm, day 7
Puccinia recondite = assay: Curative activity against brown rust of wheat (greenhouse); format: in vivo; details: wheat seedlings, sprayed 1 day after inoculation, rated after 7 days
Procedure: (§1) The active compounds were separately or jointly prepared as a stock solution comprising 25 mg of active compound which was made up to 10 ml using a mixture of acetone and/or DMSO and the emulsifier Uniperol® EL (wetting agent having emulsifying and dispersing action based on ethoxylated alkylphenols) in a volume ratio of solvent/emulsifier of 99 to 1. The mixture was then made up with water to 100 ml. This stock solution was diluted with the solvent/emulsifier/water mixture described to the concentration of active compounds stated below.
(§2) The visually determined percentages of infected leaf areas were converted into efficacies in % of the untreated control:
(§3) The efficacy (E) is calculated as follows using Abbot's formula: […]
(§4) α corresponds to the fungal infection of the treated plants in % and β corresponds to the fungal infection of the untreated (control) plants in %
(§5) An efficacy of 0 means that the infection level of the treated plants corresponds to that of the untreated control plants; an efficacy of 100 means that the treated plants were not infected.
(§6) The expected efficacies of combinations of active compounds were determined using Colby's formula (Colby, S. R. “Calculating synergistic and antagonistic responses of herbicide combinations”, Weeds, 15, 20-22, 1967) and compared with the observed efficacies.
(§7) E=x+y−x·y/100 • E expected efficacy, expressed in % of the untreated control, when using the mixture of the active compounds A and B at the concentrations a and b • x efficacy, expressed in % of the untreated control, when using the active compound A at the concentration a • y efficacy, expressed in % of the untreated control, when using the active compound B at the concentration b
Leaves of wheat seedlings of the cultivar “Kanzler” cultivated in pots were inoculated with a spore suspension of brown rust (Puccinia recondite). The pots were then placed in a chamber with high atmospheric humidity (90 to 95%) and at 20 to 22° C. for 24 hours. During this time, the spores germinated and the germ tubes penetrated into leaf tissue. The next day, the infected plants were sprayed to runoff point with the solution of active compound described above having the active compound concentration stated below. After the spray coating had dried on, the test plants were cultivated in a greenhouse at temperatures between 20 and 22° C. and at 65 to 70% relative atmospheric humidity for 7 days. The extent of the rust fungus development on the leaves was then determined.

Botrytis cinerea [2] = assay: Activity against Botrytis cinerea on bell peppers (greenhouse, protective spray); format: in vivo; details: bell pepper seedlings, sprayed 1 day before inoculation, rated after 5 days
Procedure: as §1, §2, §3, §4, §5, §6, §7
Bell pepper seedlings of the cultivar “Neusiedler Ideal Elite” were, after 2-3 leaves were well developed, sprayed to runoff point with an aqueous suspension in the active compound concentration stated below. […] After 5 days, the extent of the fungal infection on the leaves could be determined visually in %.

## Fc1ccc([C@]2(Cn3cncn3)O[C@H]2c2ccccc2Cl)cc1 (racemic) [epoxiconazole, (2RS, 3SR)-1-[3-(2-chlorophenyl)-2,3-epoxy-2-(4-fluorophenyl)propyl]-1H-1,2,4-triazole]
Botrytis cinerea [1]; 1 ppm, 405 nm
  Observed activity: 2%
Phytophthora infestans; 32 ppm
  Observed activity: 9%
Phytophthora infestans; 125 ppm
  Observed activity: 31%

## COCC(=O)N(c1c(C)cccc1C)C(C)C(=O)OC (racemic) [metalaxyl, methyl N-(methoxyacetyl)-N-(2,6-xylyl)-DL-alaninate]
Puccinia recondite; 16 ppm
  Observed activity: 0%

## COC(=O)NCc1cc(/C(C)=N/OCc2cccc(C)c2)ccc1Cl [I-B]
Botrytis cinerea [1]; 0.25 ppm, 405 nm
  Observed activity: 2%
Botrytis cinerea [1]; 1 ppm, 405 nm
  Observed activity: 40%
Botrytis cinerea [1]; 4 ppm, 405 nm
  Observed activity: 67%
Phytophthora infestans; 0.25 ppm
  Observed activity: 4%
Phytophthora infestans; 4 ppm
  Observed activity: 5%
Phytophthora infestans; 8 ppm
  Observed activity: 27%
Phytophthora infestans; 32 ppm
  Observed activity: 35%
Phytophthora infestans; 125 ppm
  Observed activity: 57%
Puccinia recondite; 16 ppm
  Observed activity: 6%
Botrytis cinerea [2]; 16 ppm
  Observed activity: 10%
Botrytis cinerea [2]; 63 ppm
  Observed activity: 20%

## O=C(Nc1ccccc1-c1ccc(Cl)cc1)c1cccnc1Cl [boscalid, 2-chloro-N-(4′-chlorbiphenyl-2-yl)nicotinamide]
Puccinia recondite; 16 ppm
  Observed activity: 0%

## Cc1ccc(-c2c(Cl)nc(C#N)n2S(=O)(=O)N(C)C)cc1 [cyazofamid, 4-chloro-2-cyano-N,N-dimethyl-5-(4-methylphenyl)-1H-imidazole-1-sulfonamide]
Botrytis cinerea [1]; 1 ppm, 405 nm
  Observed activity: 0%
Botrytis cinerea [1]; concentration not printed (second line for cyazofamid)
  Observed activity: 0%

## COc1ccc(C(=CC(=O)N2CCOCC2)c2ccc(Cl)cc2)cc1OC [dimethomorph, 3-(4-chlorophenyl)-3-(3,4-dimethoxyphenyl)-1-morpholin-4-ylpropenone]
Puccinia recondite; 2 ppm
  Observed activity: 0%
Puccinia recondite; 8 ppm
  Observed activity: 0%

## N#Cc1sc2c(=O)c3ccccc3c(=O)c=2sc1C#N [dithianon, 5,10-dioxo-5,10-dihydronaphtho[2,3-b][1,4]dithiin-2,3-dicarbonitrile]
Botrytis cinerea [2]; 63 ppm
  Observed activity: 10%

## O=[N+]([O-])c1cc(C(F)(F)F)c(Cl)c([N+](=O)[O-])c1Nc1ncc(C(F)(F)F)cc1Cl [fluazinam, 3-chloro-N-[3-chloro-2,6-dinitro-4-(trifluoromethyl)phenyl]-5-(trifluoromethyl)-2-pyridinamine]
Phytophthora infestans; 1 ppm
  Observed activity: 0%

## CO/N=C(/C(=O)OC)c1ccccc1COc1ccccc1C [kresoxim-methyl, methyl(E)-methoxyimino[α-(o-tolyloxy)-o-tolyl]acetate]
Phytophthora infestans; 1 ppm
  Observed activity: 36%
Puccinia recondite; 4 ppm
  Observed activity: 0%
Puccinia recondite; 63 ppm
  Observed activity: 18%

## OC(Cc1ccccc1Cl)(Cn1nc[nH]c1=S)C1(Cl)CC1 (centres unmarked) [prothioconazole, 2-[2-(1-chlorocyclopropyl)-3-(2-chlorophenyl)-2-hydroxypropyl]-2,4-dihydro[1,2,4]triazol-3-thione]
Phytophthora infestans; 8 ppm
  Observed activity: 0%
Phytophthora infestans; 32 ppm
  Observed activity: 46%

## COC(=O)N(OC)c1ccccc1COc1ccn(-c2ccc(Cl)cc2)n1 [pyraclostrobin, methyl N-{2-[1-(4-chlorophenyl)-1H-pyrazol-3-yloxymethyl]phenyl}(N-methoxy)carbamate]
Botrytis cinerea [1]; 0.25 ppm, 405 nm
  Observed activity: 20%

## manganese-ethylenebis(dithiocarbamate) zinc complex [mancozeb]
Botrytis cinerea [1]; 4 ppm, 405 nm
  Observed activity: 9%
